Test results published in ChEMBL document CHEMBL1201862, “PubChem BioAssay data set” (2004).
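Following 48 hours of exposure in 96-well plates, responses at five concentrations were used to interpolate endpoints linearly. Here, GI50 denotes the concentration required for 50% inhibition of growth.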 Calls of active or inactive are those of the source. No stated cut-off is given here; in the data, active = GI50 up to about 1.1 µM and inactive = higher.

Experiments:
Assay in all cases: DTP human tumour cell line panel, 48 h
K562 = tested on: K562
CAKI-1 = tested on: CAKI-1
HCT-15 = tested on: HCT-15
TK-10 = tested on: TK-10
HL-60 = tested on: HL-60
HCT-116 = tested on: HCT-116
SF-268 = tested on: SF-268
LOX IMVI = tested on: LOX IMVI
SK-MEL-5 = tested on: SK-MEL-5
HOP-62 = tested on: HOP-62
CCRF-CEM = tested on: CCRF-CEM
UACC-62 = tested on: UACC-62
M14 = tested on: M14
SW-620 = tested on: SW-620
SN12C = tested on: SN12C
NCI-H226 = tested on: NCI-H226
OVCAR-4 = tested on: OVCAR-4
MDA-N = tested on: MDA-N
NCI/ADR-RES = tested on: NCI/ADR-RES

Row | Structure (SMILES) | GI50 (K562) | GI50 (CAKI-1) | GI50 (HCT-15) | GI50 (TK-10) | GI50 (HL-60) | GI50 (HCT-116) | GI50 (SF-268) | GI50 (LOX IMVI) | GI50 (SK-MEL-5) | GI50 (HOP-62) | GI50 (CCRF-CEM) | GI50 (UACC-62) | GI50 (M14) | GI50 (SW-620) | GI50 (SN12C) | GI50 (NCI-H226) | GI50 (OVCAR-4) | GI50 (MDA-N) | GI50 (NCI/ADR-RES)
1 | CC(C)(Oc1ccc2c(=O)cc(-c3ccccc3)oc2c1)C(=O)Nc1c(Cl)cccc1Cl | 12.1 µM (inactive) | > 100 µM (inactive) | 76.7 µM | > 100 µM (inactive) | 44.3 µM (inactive) | 59.2 µM (inactive) | > 100 µM (inactive) | > 100 µM (inactive) | 26.5 µM (inactive) | > 100 µM (inactive) | 57.7 µM (inactive) | > 100 µM (inactive) | > 100 µM (inactive) | > 100 µM (inactive) | – | – | – | – | –
2 | O=C(/C=C/c1ccccc1)/C=C/c1ccccc1O | 16.4 µM (inactive) | 22 µM (inactive) | 15.9 µM | 30.1 µM (inactive) | 12.9 µM (inactive) | 15.1 µM (inactive) | 32.9 µM (inactive) | 18.2 µM (inactive) | 20.1 µM (inactive) | 38.8 µM (inactive) | 17 µM (inactive) | 19 µM (inactive) | 21 µM (inactive) | 11.6 µM (inactive) | 16.2 µM (inactive) | 22 µM (inactive) | – | – | –
3 | COC(=O)c1ccc(Cc2ccc(C(=O)OC)o2)o1 | > 378 µM (inactive) | > 378 µM (inactive) | > 378 µM | > 378 µM (inactive) | > 378 µM (inactive) | > 378 µM (inactive) | > 378 µM (inactive) | > 378 µM (inactive) | > 378 µM (inactive) | > 378 µM (inactive) | > 378 µM (inactive) | > 378 µM (inactive) | – | > 378 µM (inactive) | > 378 µM (inactive) | > 378 µM (inactive) | – | – | –
4 | CO/C=C/c1cc2c(cc1C(OC)OC)OCO2 | 29.9 µM (inactive) | 29.5 µM (inactive) | – | 55 µM (inactive) | 3.56 µM (inactive) | 27.5 µM (inactive) | 52.1 µM (inactive) | – | 17.4 µM (inactive) | 26.7 µM (inactive) | 39.7 µM (inactive) | 22.6 µM (inactive) | 31.1 µM (inactive) | 50 µM (inactive) | 79.3 µM (inactive) | 57 µM (inactive) | > 100 µM (inactive) | – | –
5 | COc1ccc(-c2c(-c3ccc(OC)cc3)n3c(=O)n(C)c(=O)n23)cc1 | > 100 µM (inactive) | > 100 µM (inactive) | 81.5 µM | 33.3 µM (inactive) | – | > 100 µM (inactive) | – | > 100 µM (inactive) | > 100 µM (inactive) | 22.7 µM (inactive) | 59.4 µM (inactive) | 30.5 µM (inactive) | > 100 µM (inactive) | > 100 µM (inactive) | 34 µM (inactive) | 60.4 µM (inactive) | 23.3 µM (inactive) | > 10 µM (inactive) | 18.4 µM (inactive)
6 | Clc1ccc(CN2COc3c(cc(Cl)c4cccnc34)C2)cc1 | 1.52 µM (inactive) | 2.62 µM (inactive) | 0.456 µM | 4.57 µM (inactive) | 0.546 µM (active) | 2.15 µM (inactive) | 2.93 µM (inactive) | 1.38 µM (inactive) | 2.26 µM (inactive) | 1.5 µM (inactive) | 1.79 µM (inactive) | 1.55 µM (inactive) | 1.68 µM (inactive) | 2.94 µM (inactive) | 4.23 µM (inactive) | 4.06 µM (inactive) | 3.33 µM (inactive) | – | –
7 | CC1=NN(C(=O)Cc2ccccc2)C(=O)/C1=C\c1ccc(O)cc1 | > 100 µM (inactive) | > 100 µM (inactive) | > 100 µM | > 100 µM (inactive) | > 100 µM (inactive) | > 100 µM (inactive) | > 100 µM (inactive) | > 100 µM (inactive) | > 100 µM (inactive) | > 100 µM (inactive) | > 100 µM (inactive) | > 100 µM (inactive) | > 100 µM (inactive) | > 100 µM (inactive) | > 100 µM (inactive) | > 100 µM (inactive) | > 100 µM (inactive) | – | –
8 | Nc1nc2c(nnn2C2C=C(CO)C(O)C2O)c(=O)[nH]1 (configuration not stated) | > 100 µM (inactive) | 57.7 µM (inactive) | > 100 µM | > 100 µM (inactive) | – | > 100 µM (inactive) | > 100 µM (inactive) | 27.9 µM (inactive) | > 100 µM (inactive) | > 100 µM (inactive) | > 100 µM (inactive) | 58.6 µM (inactive) | > 100 µM (inactive) | 66.4 µM (inactive) | 94.4 µM (inactive) | > 100 µM (inactive) | > 100 µM (inactive) | – | –
9 | NNC(=S)N/N=C(\c1nc2ccc(Cl)cc2nc1O)C(O)c1ccc(Cl)cc1Cl (configuration not stated) | > 100 µM (inactive) | > 100 µM (inactive) | > 100 µM | > 100 µM (inactive) | > 100 µM (inactive) | > 100 µM (inactive) | > 100 µM (inactive) | > 100 µM (inactive) | > 100 µM (inactive) | > 100 µM (inactive) | > 100 µM (inactive) | > 100 µM (inactive) | > 100 µM (inactive) | > 100 µM (inactive) | > 100 µM (inactive) | > 100 µM (inactive) | > 100 µM (inactive) | – | –
10 | COC(=O)C1C(O)CC(c2ccccn2)N(Cc2ccccc2)C1c1ccccn1 (configuration not stated) | 44.4 µM (inactive) | > 100 µM (inactive) | > 100 µM | > 100 µM (inactive) | 15.6 µM (inactive) | 94.4 µM (inactive) | > 100 µM (inactive) | > 100 µM (inactive) | 84.3 µM (inactive) | > 100 µM (inactive) | > 100 µM (inactive) | > 100 µM (inactive) | > 100 µM (inactive) | > 100 µM (inactive) | > 100 µM (inactive) | > 100 µM (inactive) | > 100 µM (inactive) | – | –
11 | O=C(O)CN(c1ccc(Cl)cc1)S(=O)(=O)c1ccccc1 | > 100 µM (inactive) | > 100 µM (inactive) | > 100 µM | > 100 µM (inactive) | > 100 µM (inactive) | – | > 100 µM (inactive) | > 100 µM (inactive) | > 100 µM (inactive) | – | > 100 µM (inactive) | > 100 µM (inactive) | > 100 µM (inactive) | > 100 µM (inactive) | > 100 µM (inactive) | > 100 µM (inactive) | > 100 µM (inactive) | – | –
12 | CC1=C(C(=O)Nc2ccc([N+](=O)[O-])cc2)C(c2ccc(N(C)C)cc2)C(C(=O)Nc2ccc([N+](=O)[O-])cc2)=C(C)N1 | 6.68 µM (inactive) | 31.8 µM (inactive) | – | 32 µM (inactive) | 13.1 µM (inactive) | – | 23.8 µM (inactive) | 9.04 µM (inactive) | 15 µM (inactive) | 12.6 µM (inactive) | 17.8 µM (inactive) | – | 16.9 µM (inactive) | 23.9 µM (inactive) | > 10 µM (inactive) | 17.6 µM (inactive) | 21.1 µM (inactive) | – | –
13 | Cc1ccc(Nc2ccc(Nc3ccc(C)cc3)c3c2C(=O)c2c(O)ccc(O)c2C3=O)cc1 | > 100 µM (inactive) | > 100 µM (inactive) | > 100 µM | > 100 µM (inactive) | 80.9 µM (inactive) | > 100 µM (inactive) | > 100 µM (inactive) | > 100 µM (inactive) | > 100 µM (inactive) | > 100 µM (inactive) | 67.6 µM (inactive) | > 100 µM (inactive) | > 100 µM (inactive) | > 100 µM (inactive) | > 100 µM (inactive) | – | > 100 µM (inactive) | – | –
14 | COC(=O)C(=O)C(C(=O)C1=NS(=O)(=O)c2cc(S(N)(=O)=O)c(Cl)cc2N1)c1nc2ccc(C(=O)c3ccccc3)cc2nc1O (configuration not stated) | 40 µM (inactive) | 57.8 µM (inactive) | > 100 µM | > 100 µM (inactive) | – | > 100 µM (inactive) | > 100 µM (inactive) | – | 40.2 µM (inactive) | – | 75.5 µM (inactive) | 63.2 µM (inactive) | > 100 µM (inactive) | > 100 µM (inactive) | > 100 µM (inactive) | > 100 µM (inactive) | 81.5 µM (inactive) | – | –
15 | CCc1cccc(CC)c1NC(=O)/C(Cl)=C(/Cl)C(=O)O | 11.6 µM (inactive) | 16.8 µM (inactive) | 19.4 µM | 34 µM (inactive) | 5.05 µM (inactive) | 25 µM (inactive) | 40.3 µM (inactive) | > 100 µM (inactive) | 36.7 µM (inactive) | > 100 µM (inactive) | 6.44 µM (inactive) | 37.4 µM (inactive) | 17.1 µM (inactive) | 21.2 µM (inactive) | 31.1 µM (inactive) | > 100 µM (inactive) | 17.2 µM (inactive) | – | –
16 | COC(=O)C(C(=O)C(=O)Nc1cccc(OC)c1)c1cnc2ccccc2n1 (configuration not stated) | > 100 µM (inactive) | > 100 µM (inactive) | > 100 µM | > 100 µM (inactive) | > 100 µM (inactive) | 29.3 µM (inactive) | > 100 µM (inactive) | > 100 µM (inactive) | > 100 µM (inactive) | > 100 µM (inactive) | > 100 µM (inactive) | > 100 µM (inactive) | > 100 µM (inactive) | > 100 µM (inactive) | > 100 µM (inactive) | > 100 µM (inactive) | > 100 µM (inactive) | – | –
17 | CN1CC(=O)N(C)c2ncn(Cc3ccccc3)c2C1=O | > 100 µM (inactive) | – | > 100 µM | > 100 µM (inactive) | > 100 µM (inactive) | – | 12.2 µM (inactive) | > 100 µM (inactive) | > 100 µM (inactive) | – | > 100 µM (inactive) | > 100 µM (inactive) | > 100 µM (inactive) | > 100 µM (inactive) | > 100 µM (inactive) | – | > 100 µM (inactive) | – | –
